Experimental data from US20110245349A1, “BENZYL ALCOHOL MIXTURE FOR TREATING PREMATURE EJACULATION” (PANAXIA LTD., priority 2010, published 2011).

Test system: sexual desensitization of male subjects
Assay: Desensitization effect scored by male subjects after rubbing the mixture on the genital organs and manual stimulation
Type: in vivo, human
Settings: for Mean desensitization effect: scale of 1-10, mean of 5 subjects
Experimental: In a trial which was conducted on 5 healthy, sexually active male subjects the following formulations were tested: Benzyl alcohol in concentrations: 1%, 3%, 5%, 7% and 10%. Each of the concentrations was tested in the following vehicles: aqueous alcoholic solution, gel, ointment and cream. For each formulation the participants were requested to rub the mixture on their genital organs until complete skin absorption and then wait for the full effect for 5 minutes. After the waiting period the participants were requested to perform manual stimulation of their genital organs and describe the desensitization effect of the mixture in a scale of 1-10.
In another trial, menthol was added to the mixture and the same procedure that was described earlier was applied to assess the effect of menthol addition.

`OCc1ccccc1` [Benzyl alcohol] was tested, and the “Desensitization effect (in words)” value (each of the benzyl alcohol concentrations tested (1-10%)) was “effective as a desensitizer”, the “Optimal concentration of benzyl alcohol” value (found in the applicant's tests) was 5% and the Mean desensitization effect (aqueous alcoholic solution (1:1 water ethanol mixture), benzyl alcohol 1%, 5 min wait) was 3.2. The Mean desensitization effect (aqueous alcoholic solution (1:1 water ethanol mixture), benzyl alcohol 3%) was 4.6, the Mean desensitization effect (aqueous alcoholic solution (1:1 water ethanol mixture), benzyl alcohol 5%) was 6.2 and the Mean desensitization effect (aqueous alcoholic solution (1:1 water ethanol mixture), benzyl alcohol 7%) was 7.6. The Mean desensitization effect (aqueous alcoholic solution (1:1 water ethanol mixture), benzyl alcohol 10%) was 8.0, the Mean desensitization effect (aqueous gel (1% hydroxyethylcellulose gel), benzyl alcohol 1%) was 2.8 and the Mean desensitization effect (aqueous gel (1% hydroxyethylcellulose gel), benzyl alcohol 3%) was 4.2. For the same compound, the Mean desensitization effect (aqueous gel (1% hydroxyethylcellulose gel), benzyl alcohol 5%) was 5.6, the Mean desensitization effect (aqueous gel (1% hydroxyethylcellulose gel), benzyl alcohol 7%) was 6.6 and the Mean desensitization effect (aqueous gel (1% hydroxyethylcellulose gel), benzyl alcohol 10%) was 7.4. It also gave a Mean desensitization effect (cream, benzyl alcohol 1%) of 2.4, a Mean desensitization effect (cream, benzyl alcohol 3%) of 3.6 and a Mean desensitization effect (cream, benzyl alcohol 5%) of 5.2. For the same compound, the Mean desensitization effect (cream, benzyl alcohol 7%) was 6.2, the Mean desensitization effect (cream, benzyl alcohol 10%) was 6.8 and the Mean desensitization effect (ointment, benzyl alcohol 1%) was 2.0. For the same compound, the Mean desensitization effect (ointment, benzyl alcohol 3%) was 3.2, the Mean desensitization effect (ointment, benzyl alcohol 5%) was 4.8 and the Mean desensitization effect (ointment, benzyl alcohol 7%) was 5.8. For the same compound, the Mean desensitization effect (ointment, benzyl alcohol 10%) was 6.2.

With `CC1CCC(C(C)C)C(O)C1` (stereo not drawn) [menthol, Menthol] the “Desensitization effect (in words)” value (menthol combined with benzyl alcohol gel, compared with the same concentration of benzyl alcohol alone) was “dramatic effect” and the “Desensitization effect (in words)” value (sole use of menthol in 1% Hydroxyethylcellulose gel) was “did not create a substantial desensitization effect”.
